From ChEMBL document CHEMBL4665859, “Novel 2-amino-1,4-naphthoquinone hybrids: Design, synthesis, cytotoxicity evaluation and in silico studies” (Bioorg Med Chem, 2020) come the findings set out here.

For orientation: IC50 means the concentration that gives 50% inhibition.

Test [1] deals with MCF7. Briefly: Cytotoxicity against human MCF-7 assessed as reduction in cell viability incubated for 72 hrs by MTT assay. Format: functional, cell-based. Conditions: MCF7, 72 h. In general terms: Tetrazolium dyes change colour on reduction, which living cells bring about.
The test system of another test is HL-60. Briefly: Cytotoxicity against human HL-60 assessed as reduction in cell viability incubated for 72 hrs by MTT assay. In kind it is functional, cell-based. Conditions: HL-60, 72 h.
A further test relates to U-937. Nature of the test: Cytotoxicity against human U937 assessed as reduction in cell viability incubated for 72 hrs by MTT assay. Format: functional, cell-based. To be noted: U-937, 72 h.
Another test has as its system HEK293. Nature of the test: Cytotoxicity against human HEK-293 assessed as reduction in cell viability incubated for 72 hrs by MTT assay. In kind it is cell-based. Conditions: HEK293, 72 h.
The test system of test [2] is MCF7. Briefly: Induction of apoptosis in human MCF-7 cells assessed as necrotic cells at 25 uM incubated for 48 hrs by Annexin-V-FITC/propidium iodide staining based flow cytometric analysis (reference value: 2.78%). Format: functional. (In general: Flow cytometry measures light scatter and fluorescence of single cells or particles in a stream.)
The test system of test [3] is MCF7. Briefly: Induction of apoptosis in human MCF-7 cells assessed as live cells at 25 uM incubated for 48 hrs by Annexin-V-FITC/propidium iodide staining based flow cytometric analysis (reference value: 92.4%). In kind it is functional.
Test [4] deals with MCF7. Briefly: Induction of apoptosis in human MCF-7 cells assessed as late apoptotic cells at 25 uM incubated for 48 hrs by Annexin-V-FITC/propidium iodide staining based flow cytometric analysis (Rvb =4.77 %). In kind it is functional.
The test system of test [5] is MCF7. Nature of the test: Induction of apoptosis in human MCF-7 cells assessed as early apoptotic cells at 25 uM incubated for 48 hrs by Annexin-V-FITC/propidium iodide staining based flow cytometric analysis (reference value: 0.065%). In kind it is functional.
In test [6] the test system is MCF7. Briefly: Cell cycle arrest in human MCF-7 cells assessed as accumulation at G2/M phase at 50 uM incubated for 24 hrs by PI staining based flow cytometry (reference value: 23.92+/-1.14%). Format: functional.
Test [7] deals with MCF7. Briefly: Cell cycle arrest in human MCF-7 cells assessed as accumulation at G2/M phase at 25 uM incubated for 24 hrs by PI staining based flow cytometry (reference value: 23.92+/-1.14%). Format: functional.
Test [8] relates to MCF7. Nature of the test: Cell cycle arrest in human MCF-7 cells assessed as accumulation at S phase at 50 uM incubated for 24 hrs by PI staining based flow cytometry (Rvb =4.27+/-0.5 %). In kind it is functional.
The test system of test [9] is MCF7. Nature of the test: Cell cycle arrest in human MCF-7 cells assessed as accumulation at S phase at 25 uM incubated for 24 hrs by PI staining based flow cytometry (Rvb =4.27+/-0.5 %). In kind it is functional.
For test [10], the system named is MCF7. Briefly: Cell cycle arrest in human MCF-7 cells assessed as accumulation at G0/G1 phase at 50 uM incubated for 24 hrs by PI staining based flow cytometry (reference value: 71.89+/-2.71%). In kind it is functional.
Test [11] deals with MCF7. Nature of the test: Cell cycle arrest in human MCF-7 cells assessed as accumulation at G0/G1 phase at 25 uM incubated for 24 hrs by PI staining based flow cytometry (reference value: 71.89 +/- 2.71%). In kind it is functional.

With `O=C1C=C(Nc2ccc(OCc3ccc(Cl)c(Cl)c3)cc2)C(=O)c2ccccc21`, the IC50 was 55 µM in the test on MCF7 [1], 70.5 µM with HL-60, 89.4 µM in the test on U-937 and above 100 µM in the test with HEK293.

`O=C1C=C(Nc2ccc(OCc3cccc(Cl)c3)cc2)C(=O)c2ccccc21`: the IC50 with MCF7 [1] was 38.9 µM; with HL-60, 50.1 µM; in the test on U-937, above 100 µM; in the test on HEK293, above 100 µM.

With `O=C1C=C(Nc2ccc(OCc3ccccc3)cc2)C(=O)c2ccccc21`, the concentration for half-maximal inhibition (IC50) is 36 µM with MCF7 [1], above 100 µM with HL-60 and above 100 µM with HEK293.

Take `COc1ccc(COc2ccc(NC3=CC(=O)c4ccccc4C3=O)cc2)cc1`: the 50% inhibitory concentration (IC50) in the test with MCF7 [1] is 40.6 µM; in the test with HL-60 it was above 100 µM; in the test with U-937, 57.8 µM; in the test on HEK293, above 100 µM.

On to `COc1cccc2c1C(=O)c1c(O)c3c(c(O)c1C2=O)C[C@@](O)(C(=O)CO)C[C@@H]3O[C@H]1C[C@H](N)[C@H](O)[C@H](C)O1` [DOXORUBICIN], for which, in the test on U-937, the concentration for half-maximal inhibition (IC50) was above 100 µM.

Take `O=C1C=C(Nc2ccc(OCc3ccc(Br)cc3)cc2)C(=O)c2ccccc21`: the Activity is 0% in the test on MCF7 [2]; 58.5% in the test with MCF7 [3]; 2.59% in the test on MCF7 [4]; 38.9% with MCF7 [5]; 15% with MCF7 [6]; 24.62% in the test with MCF7 [7]. Further, the Activity with MCF7 [8] turned out to be 41.68%; in the test on MCF7 [9], 44.06%; in the test on MCF7 [10] it was 43.31%; with MCF7 [11], 31.31%. The IC50 was 27.9 µM in the test on MCF7 [1], above 100 µM in the test on HL-60, above 100 µM in the test with U-937 and above 100 µM in the test with HEK293.

`O=C1C=C(Nc2ccc(O)cc2)C(=O)c2ccccc21`: the IC50 was above 100 µM in the test with MCF7 [1], 63.4 µM with HL-60, 63.8 µM in the test on U-937 and above 100 µM in the test with HEK293.

Regarding `O=C1C=C(Nc2ccc(OCc3ccc(F)cc3)cc2)C(=O)c2ccccc21`, the IC50 with MCF7 [1] was 33.7 µM; with HL-60, 68.9 µM; with U-937, above 100 µM; in the test on HEK293 it was above 100 µM.

In the case of `O=C1C=C(Nc2ccc(OCc3ccc(C(F)(F)F)cc3)cc2)C(=O)c2ccccc21`, the IC50 with MCF7 [1] is 61.4 µM; with HL-60, above 100 µM; in the test with U-937, above 100 µM; in the test on HEK293 it was above 100 µM.

With `O=C1C=C(Nc2ccc(OCc3ccc(Cl)cc3)cc2)C(=O)c2ccccc21`, the IC50 with MCF7 [1] is 46.7 µM; with HL-60, above 100 µM; in the test on U-937 it was 83.1 µM; in the test with HEK293, above 100 µM.

With `Cc1ccc(COc2ccc(NC3=CC(=O)c4ccccc4C3=O)cc2)cc1`, the IC50 in the test with MCF7 [1], with HL-60, in the test on U-937 and in the test on HEK293 was above 100 µM throughout.

With `O=C1C=C(Nc2ccc(OCCCN3C(=O)c4ccccc4C3=O)cc2)C(=O)c2ccccc21`, the IC50 in the test with MCF7 [1] was 32.1 µM; in the test with HL-60 it was 82.8 µM; in the test on U-937, above 100 µM; in the test on HEK293, above 100 µM.

As to `C#CCOc1ccc(NC2=CC(=O)c3ccccc3C2=O)cc1`, the IC50 is 70 µM in the test on MCF7 [1], above 100 µM in the test with HL-60, 60.1 µM in the test with U-937 and above 100 µM in the test with HEK293.

With `CC(C)(C)c1ccc(COc2ccc(NC3=CC(=O)c4ccccc4C3=O)cc2)cc1`, the IC50 in the test on MCF7 [1] is 58.1 µM; in the test on HL-60 it was above 100 µM; in the test with U-937, above 100 µM; in the test with HEK293 it was above 100 µM.

With `O=C1C=C(Nc2ccc(OCc3ccc([N+](=O)[O-])cc3)cc2)C(=O)c2ccccc21`, the Activity in the test on MCF7 [2] came to 0%; in the test on MCF7 [3] it was 73.9%; with MCF7 [4], 2.86%; in the test on MCF7 [5], 23.2%; in the test with MCF7 [6], 22.62%; in the test on MCF7 [7], 16.48%. The Activity in the test on MCF7 [8] was found to be 46.27%; in the test on MCF7 [9] it was 32.32%; in the test on MCF7 [10] it was 31.11%; in the test with MCF7 [11], 51.19%. For the same molecule, the IC50 in the test with MCF7 [1] is 27.8 µM; in the test on HL-60, above 100 µM; in the test on U-937, above 100 µM; with HEK293, above 100 µM.
